Measured values from patent US5573772A, “Methods for protecting tissues and organs from ischemic damage” (priority 1994, dated 1996).

What was measured:
isolated rabbit hearts = assay: Hemodynamic effects in non-ischemic, unpaced isolated rabbit hearts, Example 4; conditions: APNEA 500 nM
Protocol: In an additional group of 3 hearts that were not made ischemic, 500 nM APNEA was infused for 1 minute. This group of hearts was not paced to control heart rate, and the effects of APNEA on spontaneous heart rate and coronary flow were measured to determine the hemodynamic effects of APNEA.

intact rabbit = assay: Bradycardia and mean arterial pressure in the anesthetized rabbit, Example 2; conditions: DPCPX 0.5 mg/kg IV
[1] = system: A3 adenosine receptor (R226); conditions: cited from earlier work
[2] = system: intact, blood perfused rabbit heart; assay: Infarct size in the intact anesthetized rabbit, 30 min ischemia and reperfusion, Example 2
Protocol: In this study, the effect of the adenosine receptor agonist, I-APNEA, on infarct size in the anesthetized rabbit was compared to the protection observed with ischemic preconditioning (PC).
New Zealand White rabbits (1.5-2.5 kg) were anaesthetized with pentobarbital sodium (40 mg/kg) administered via a catheter in a marginal ear vein. The animals were intubated with a pediatric cuffed endotracheal tube and ventilated with room air using a positive pressure respirator (Harvard Apparatus, Natick, Mass.). The heart was exposed in situ via an incision between the left 4th and 5th ribs, and a branch of the left coronary artery was isolated, using a 3-0 silk suture on RB-taper needle, for later ligation to induce 30 minutes of ischemia followed by 180 minutes of reperfusion. A catheter inserted into a femoral vein was used for administration of fluids and drugs. Infarct size was measured using the method described in the section entitled "Measurement of Infarct Size and Risk Area" in Example 1.
All animals received 30 minutes of regional ischemia, induced by tightening the suture placed around the coronary artery. Following the 30 minutes of ischemia, the suture was loosened, and reperfusion was allowed for the ensuing 180 minutes. Control animals received only the 30 minutes of ischemia and 180 minutes of reperfusion (n=9). Ischemic preconditioning (PC) was induced by 5 minutes of occlusion of the coronary artery followed by 10 minutes of reperfusion before the 30 minutes of occlusion (n=7). In a separate group of rabbits, I-APNEA was delivered intravenously as a slow bolus injection (0.25 mg/kg), beginning 15 minutes prior to the 30 minutes occlusion (n=8). In two additional groups of rabbits, the effects of the A1-selective adenosine receptor blocker, DPCPX, were tested against the effects of PC (n=6) and I-APNEA (n=8). […] At the end of 120 minutes of reperfusion, all animals were killed by an overdose of pentobarbital, and risk area and infarct size were measured.

heart = conditions: cited from earlier work

Nc1ccc(CCNc2ncnc3c2ncn3[C@@H]2O[C@H](CO)[C@@H](O)[C@H]2O)cc1 [APNEA, N^6-(2-(4-aminophenyl)ethyl) adenosine]
Coronary flow after APNEA (isolated rabbit hearts; 1 minute, before 50±9, 3 hearts): 58 ± 6 mL/min
Heart rate after APNEA (isolated rabbit hearts; 1 minute, before 178±7, 3 hearts): 169±3 beats/min
Effect on heart rate or coronary flow (isolated rabbit hearts; non-ischemic hearts): no effect on heart rate or coronary flow

CCCn1c(=O)c2[nH]c(C3CCCC3)nc2n(CCC)c1=O [DPCPX, 8-cyclopentyl-1,3-dipropylxanthine]
Effect on bradycardia associated with activation of the A1 adenosine receptor (intact rabbit): abolish
Effect on fall in mean arterial pressure with I-APNEA or R-PIA (intact rabbit; I-APNEA 0.25 mg/kg or R-PIA 1 mg/kg, iv): attenuated
Binding to R226 [1]: not to bind
Infarct size ([2]; DPCPX 0.5 mg/kg IV + I-APNEA 0.25 mg/kg): 28±8.0%
Infarct size ([2]; DPCPX 0.5 mg/kg IV + PC): 7±1.8%

Nc1ncnc2c1ncn2[C@@H]1O[C@H](CO)[C@@H](O)[C@H]1O [ADO, Adenosine]
Sensation of anginal pain (heart; in vivo): mediator of the sensation of anginal pain
Hypotension (heart; intravenous injection at doses required for ischemic preconditioning): too much hypotension
